In article PMC11714206, “Massively Parallel Screening of Toll/Interleukin‐1 Receptor (TIR)‐Derived Peptides Reveals Multiple Toll‐Like Receptors (TLRs)‐Targeting Immunomodulatory Peptides” (Advanced Science, 2024):
Where “and” joins values, the source holds several entries; their conditions need not be identical. Identical values can stand only once. Blank lines part the entries; values can stand above or below the sequence they belong to.

Molecular target: T1, MAL^TIR (Homo sapiens, UniProt P58753)
T1 construct: MAL (residues 79–221); 6xHis; made in house; host or cells: E. coli BL21 (DE3)
T1 sequence (P58753 79-221): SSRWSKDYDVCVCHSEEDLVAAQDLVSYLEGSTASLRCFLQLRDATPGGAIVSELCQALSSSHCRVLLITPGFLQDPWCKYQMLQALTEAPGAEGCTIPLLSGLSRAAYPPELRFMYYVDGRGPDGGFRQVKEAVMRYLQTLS
Assay: T‐Surf phage library (P8 and P3) selection against MAL^TIR, four rounds, NGS read counts
Type: binding
Conditions: for P8_MAL Rank (after) / P8_MAL Rank (before): P8 library; for Population: 4th round of selection against MAL TIR, share of NGS reads; for P3_MAL Rank (after) / P3_MAL Rank (before): P3 library
Outline: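 P8 and P3 T‐Surf libraries panned against plate-coated TIR domains (5 µg mL^−1), 1 h binding at RT, acid elution and TG1/helper-phage amplification per round. After four rounds, pools were PCR-barcoded and sequenced (NovaSeq, 100 bp paired-end, Phred ≥30); peptides ranked by read counts.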

[1] = P8_MAL: rank by count after grouping
[2] = P8_MAL: rank by count before grouping
[3] = selection against MAL TIR, rank by count after grouping
[4] = selection against MAL TIR, rank by count before grouping
[5] = P3_MAL: rank by count after grouping
[6] = P3_MAL: rank by count before grouping
[7] = selection against MAL, rank by count after grouping
[8] = selection against MAL, rank by count before grouping
[9] = 4R selection against MAL, rank after grouping
[10] = 4R selection against MAL, rank before grouping
[11] = selection against MAL, rank after grouping
[12] = selection against MAL, rank before grouping
[13] = P8_MAL pool: P8 T-Surf phage library

Sequence: CFYERLVNLILRDTKV
P8_MAL Rank (after) [3]: 205 | P8_MAL Rank (before) [4]: 1107

Sequence: LLIYRFVKKRNYLLGH
Rank (after) [5]: 416 | Rank (before) [6]: 2085

Sequence: YAFTSHLHRYLVQRGV
Population (P3_MAL pool: P3 T-Surf phage library): 0.00827%

Sequence: AFLYNFLLNLTHKPTF
P8_MAL Rank (after) [9]: 671 | P8_MAL Rank (before) [10]: 1891

Sequence: PFFWAQLKSLLRNPTS
P8_MAL Rank (after) [11]: 574 | P8_MAL Rank (before) [12]: 2320

Sequence: LKVESWLQTLAKAGKL
P3_MAL Rank (after) [7]: 763 | P3_MAL Rank (before) [8]: 2262

Sequence: NQAFWNRLWAKLKPLT
P3_MAL Rank (after) [9]: 631 | P3_MAL Rank (before) [10]: 3431

Sequence: TFLGHLYNALVQAGIH
Population [13]: 0.00463% and 0.00432% and 0.00402%

Sequence: SSFREDLWRLRERSKQ
P3_MAL Rank (after) [11]: 491 | P3_MAL Rank (before) [12]: 3187

Sequence: VRVVDDGSVSPLEM
P3_MAL Rank (after) [11]: 512 | P3_MAL Rank (before) [12]: 1691

Sequence: PNLRTTVLKYLIRTKT
Rank (after) [5]: 446 | Rank (before) [6]: 2749

Sequence: DTALTNSGFHIFRDNE
P3_MAL Rank (after) [7]: 689 | P3_MAL Rank (before) [8]: 1984

Sequence: RGFLSHLRHYLQAKAH
P3_MAL Rank (after) [11]: 552 | P3_MAL Rank (before) [12]: 2430

Sequence: LFYERLVSLILRDTRG
P8_MAL Rank (after) [11]: 496 | P8_MAL Rank (before) [12]: 1104

Sequence: ESILDQLRRRSQSIAN
P3_MAL Rank (after) [9]: 591 | P3_MAL Rank (before) [10]: 2042

Sequence: PNLRTTLMTSPMRTKT
P3_MAL Rank (after) [9]: 656 | P3_MAL Rank (before) [10]: 2673

Sequence: YAFTGYLHRYVVQRGV
P3_MAL Rank (after) [11]: 519 | P3_MAL Rank (before) [12]: 1355

Sequence: SFMLKFRTVLHHVHDV
P8_MAL Rank (after) [9]: 583 | P8_MAL Rank (before) [10]: 1451

Sequence: KMQKWKDALYEAANE
P3_MAL Rank (after) [9]: 614 | P3_MAL Rank (before) [10]: 3674

Sequence: TRPYLDWPQEPEMHEA
Rank (after) [1]: 434 | Rank (before) [2]: 2652

Sequence: FTLAVQVRNLLVGAFI
P8_MAL Rank (after) [3]: 262 | P8_MAL Rank (before) [4]: 1099

Sequence: YFLHFLLCSRPETAYI
P8_MAL Rank (after) [3]: 199 | P8_MAL Rank (before) [4]: 1496

Sequence: LKWGDPYFWIKLRYTM
P3_MAL Rank (after) [3]: 233 | P3_MAL Rank (before) [4]: 2212

Sequence: TFLGQTYNAQAPAEIP
P8_MAL Rank (after) [9]: 644 | P8_MAL Rank (before) [10]: 2613

Sequence: WFYERLVSLILRDTKM
Population [13]: 0.00402%

Sequence: WFYEPLVSQITRDTKV
P8_MAL Rank (after) [9]: 586 | P8_MAL Rank (before) [10]: 1294

Sequence: AFQYTFLFNLTHPTNF
Rank (after) [1]: 125 | Rank (before) [2]: 1920

Sequence: NGYGSELIKEIVDTGV
P3_MAL Rank (after) [7]: 702 | P3_MAL Rank (before) [8]: 3249

Sequence: ELFLDQVLAVLVKPTM
P8_MAL Rank (after) [11]: 530 | P8_MAL Rank (before) [12]: 2042

Sequence: NNLFNALVSKNIRTFM
P3_MAL Rank (after) [3]: 258 | P3_MAL Rank (before) [4]: 3481

Sequence: MVRVKAFHKRLKTALG
Rank (after) [5]: 438 | Rank (before) [6]: 2922

Sequence: AFFWAQVKSVLGNTTM
P8_MAL Rank (after) [3]: 264 | P8_MAL Rank (before) [4]: 1603

Sequence: YFLHFRLLSRPETEYI
P8_MAL Rank (after) [9]: 643 | P8_MAL Rank (before) [10]: 1505

Sequence: RGFLSHLRNHLQAKDP
P3_MAL Rank (after) [3]: 210 | P3_MAL Rank (before) [4]: 2408

Sequence: YFLHFLLFSRPNRVY
Rank (after) [1]: 438 | Rank (before) [2]: 1488

Other lines, results leading:

Rank (after) [1]: 120 | Rank (before) [2]: 2553
Sequence: TFLGPLYNALVQAGIP

P8_MAL Rank (after) [7]: 706 | P8_MAL Rank (before) [8]: 1296
Sequence: WFYEPLLSMLLRATKV

P8_MAL Rank (after) [7]: 681 | P8_MAL Rank (before) [8]: 1923
Sequence: AFMYTFLINLTHPNNF

Rank (after) [1]: 410 | Rank (before) [2]: 1876
Sequence: AFLYTFLKNLTHTPTF

P3_MAL Rank (after) [11]: 517 | P3_MAL Rank (before) [12]: 1370
Sequence: YAFTGHLRRYMVQRGV

P3_MAL Rank (after) [7]: 684 | P3_MAL Rank (before) [8]: 3216
Sequence: SNLREGLWGLLELSKK

P8_MAL Rank (after) [9]: 651 | P8_MAL Rank (before) [10]: 2040
Sequence: DTRYTFIAHLSHALNL

P8_MAL Rank (after) [11]: 575 | P8_MAL Rank (before) [12]: 2300
Sequence: RKGDLISDELLIAIEE

Rank (after) [5]: 402 | Rank (before) [6]: 3424
Sequence: NQCHNAITADMNQTRL

P8_MAL Rank (after) [7]: 680 | P8_MAL Rank (before) [8]: 1087
Sequence: FDRFHIYFLHFLLFSR

P3_MAL Rank (after) [3]: 221 | P3_MAL Rank (before) [4]: 3364
Sequence: NQWRNALTAAASLSGR

Population [13]: 0.00278%
Sequence: WFYERLESLILRDTKV

P8_MAL Rank (after) [9]: 626 | P8_MAL Rank (before) [10]: 2172
Sequence: RDFVAYLCQALANKGI

Rank (after) [1]: 99 | Rank (before) [2]: 718
Sequence: TFLAICIMRWCRRAF

Rank (after) [1]: 172 | Rank (before) [2]: 1269
Sequence: WFYERLVSLMLRDKKV

Rank (after) [5]: 423 | Rank (before) [6]: 2362
Sequence: RGFLSHLYQGLKNRGI

P3_MAL Rank (after) [9]: 628 | P3_MAL Rank (before) [10]: 1147
Sequence: FLNFRGLGGRNYFLGH

P8_MAL Rank (after) [3]: 192 | P8_MAL Rank (before) [4]: 1005
Sequence: MFGGDTFHDFLDLISM
